The values below come from ChEMBL document CHEMBL1201862, “PubChem BioAssay data set” (2004).

Molecules are shown by their SMILES. Active and inactive are the calls of the source.

Assay [1] addresses Nuclear receptor subfamily 5 group A member 2 (Homo sapiens, UniProt O00482). The class given is functional, cell-based.
In another assay the target is Steroidogenic factor 1 (Homo sapiens, UniProt Q13285). The assay can be described thus: Counterscreen for inverse agonists of the liver receptor homolog-1 (LRH-1; NR5A2): Luminescence-based cell-based high throughput dose response assay to identify inverse agonists of the Steroidogenic Factor 1 Nuclear Receptor (SF1; NR5A1). The class given is functional. On the technique in general: The purpose of a counterscreen is to sort out artefacts and off-target activity.
Chain of Steroidogenic factor 1 (Q13285 whole entry): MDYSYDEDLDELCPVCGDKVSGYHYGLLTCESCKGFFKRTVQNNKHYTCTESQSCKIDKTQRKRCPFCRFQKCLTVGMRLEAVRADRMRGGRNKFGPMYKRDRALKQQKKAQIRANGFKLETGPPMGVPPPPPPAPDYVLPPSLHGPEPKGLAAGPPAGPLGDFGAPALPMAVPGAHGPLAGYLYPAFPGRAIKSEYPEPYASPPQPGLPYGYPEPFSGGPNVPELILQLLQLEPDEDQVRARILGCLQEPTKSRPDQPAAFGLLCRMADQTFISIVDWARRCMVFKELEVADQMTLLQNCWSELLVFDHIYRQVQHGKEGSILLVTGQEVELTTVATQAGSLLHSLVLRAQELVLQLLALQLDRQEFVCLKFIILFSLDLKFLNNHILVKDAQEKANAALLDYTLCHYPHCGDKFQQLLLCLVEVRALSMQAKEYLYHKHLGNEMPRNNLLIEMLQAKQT

Assay [2] in a line: StAR promoter reporter inhibition counter-screen, dose response, counter-screen for LRH-1 inverse agonist project, cell-based, luminescence, luciferase reporter (AID 651969). The class given is functional.
Assay [3] has as its target T1, Small ubiquitin-related modifier 1 (Homo sapiens, UniProt P63165). Briefly: inhibitors of SUMO1 peptide binding, dose response, biochemical, fluorescence polarization, uHTS hits (AID 624382). The settings on record: read-out: IC50_Mean. Type of assay: functional. A general note: Polarisation of emitted light reports the rotation of a fluorescent probe.
Assay [4] addresses T1, Small ubiquitin-related modifier 1. The assay can be described thus: inhibitors of SUMO1 partner interactions, dose response, biochemical, FRET (AID 624383). The class given is functional. To be noted: read-out: IC50_Mean.
The target of assay [5] is T2, Heat shock factor protein 1 (Mus musculus, UniProt P38532).
T2 sequence (P38532 whole entry): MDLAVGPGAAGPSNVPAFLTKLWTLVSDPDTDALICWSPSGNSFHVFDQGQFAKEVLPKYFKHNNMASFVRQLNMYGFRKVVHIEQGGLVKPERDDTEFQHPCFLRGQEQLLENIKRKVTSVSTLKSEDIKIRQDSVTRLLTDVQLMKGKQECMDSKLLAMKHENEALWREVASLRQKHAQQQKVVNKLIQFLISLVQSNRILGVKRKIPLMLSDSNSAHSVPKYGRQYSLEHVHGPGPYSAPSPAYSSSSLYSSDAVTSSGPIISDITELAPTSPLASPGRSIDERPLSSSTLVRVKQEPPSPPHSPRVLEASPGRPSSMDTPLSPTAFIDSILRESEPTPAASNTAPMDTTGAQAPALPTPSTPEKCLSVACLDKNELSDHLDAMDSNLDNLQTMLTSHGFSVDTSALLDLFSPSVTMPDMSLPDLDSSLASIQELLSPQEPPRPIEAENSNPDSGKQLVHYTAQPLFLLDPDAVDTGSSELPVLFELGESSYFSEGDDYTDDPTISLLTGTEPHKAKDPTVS
Briefly: inhibition of MG132-induced HSE-luciferase signal, confirmation, cell-based, NIH3T3, luminescence, dose retest (AID 2382).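 Further: NIH3T3 fibroblasts with HSF1-driven luciferase reporter stressed by proteasome inhibitor MG132; luminescence from HSF1-driven luciferase expression after 8 hours of MG132 stress.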 Type of assay: functional.

In assay [6] the target is T3, Methionyl-tRNA synthetase, putative (Trypanosoma brucei brucei, UniProt Q38C91). The class given is functional, Trypanosoma brucei brucei strain 927/4 GUTat10.1.
T3 sequence (Q38C91 whole entry): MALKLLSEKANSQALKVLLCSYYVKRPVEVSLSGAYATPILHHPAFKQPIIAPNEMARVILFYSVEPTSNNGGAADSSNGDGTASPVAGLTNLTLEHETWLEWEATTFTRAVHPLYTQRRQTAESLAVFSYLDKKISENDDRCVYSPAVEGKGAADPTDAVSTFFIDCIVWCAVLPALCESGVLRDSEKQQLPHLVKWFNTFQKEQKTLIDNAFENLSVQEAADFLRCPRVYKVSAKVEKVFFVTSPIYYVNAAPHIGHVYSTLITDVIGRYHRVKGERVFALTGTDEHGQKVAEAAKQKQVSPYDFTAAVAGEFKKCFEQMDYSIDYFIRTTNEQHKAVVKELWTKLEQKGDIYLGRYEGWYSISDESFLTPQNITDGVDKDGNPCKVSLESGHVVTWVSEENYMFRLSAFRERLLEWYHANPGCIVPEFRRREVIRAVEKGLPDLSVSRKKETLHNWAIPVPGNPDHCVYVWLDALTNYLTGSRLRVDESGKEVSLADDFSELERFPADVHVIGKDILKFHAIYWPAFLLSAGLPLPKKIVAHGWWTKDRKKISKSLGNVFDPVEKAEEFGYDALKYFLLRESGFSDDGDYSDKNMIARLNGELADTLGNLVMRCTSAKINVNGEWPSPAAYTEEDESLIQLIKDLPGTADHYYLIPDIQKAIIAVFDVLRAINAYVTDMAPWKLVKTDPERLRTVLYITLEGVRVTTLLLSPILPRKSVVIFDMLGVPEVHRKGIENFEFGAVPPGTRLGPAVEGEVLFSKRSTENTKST
In assay [7] the target is T3, Methionyl-tRNA synthetase, putative. The class given is functional, Trypanosoma brucei brucei strain 927/4 GUTat10.1. The source holds these as a separate data set.
Assay [8] deals with T4, Probable nicotinate-nucleotide adenylyltransferase (Staphylococcus aureus (strain N315), UniProt P65502). Type of assay: functional, Staphylococcus aureus subsp. aureus N315.
T4 sequence (P65502 whole entry): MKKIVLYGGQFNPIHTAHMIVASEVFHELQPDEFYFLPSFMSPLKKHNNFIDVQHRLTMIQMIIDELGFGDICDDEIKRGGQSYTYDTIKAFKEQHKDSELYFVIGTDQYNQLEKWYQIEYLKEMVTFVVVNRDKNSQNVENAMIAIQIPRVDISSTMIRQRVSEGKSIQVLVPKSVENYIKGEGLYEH
Assay [9] addresses T4, Probable nicotinate-nucleotide adenylyltransferase. The class given is functional, Staphylococcus aureus subsp. aureus N315. To be noted: read-out: IC50_Mean.
The next assay has as its target Paired box protein Pax-8 (Homo sapiens, UniProt Q06710). The assay can be described thus: inhibitors of PAX8-driven TPO luciferase reporter, dose response, RMG-I cells, cherry-pick (AID 687027).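 Further: luciferase reporter driven by Pax8 target thyroperoxidase promoter measured by SteadyGlo luminescence.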 The class given is functional, cell-based.
Assay [10] has as its system BJ. The assay can be described thus: cytotoxicity toward BJ-TERT fibroblasts, dose response, cell-based, RAS-independent, luminescence (AID 1933). The class given is functional. To be noted: Homo sapiens.
Assay [11] deals with BJ. Briefly: cells. The class given is functional, cell-based. To be noted: Homo sapiens.
Assay [12] can be described thus: inhibitors of intracellular T. cruzi replication, confirmation, NIH3T3 host cells, beta-gal luminescence (AID 2044).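 Further: intracellular parasites grown in NIH/3T3 mouse fibroblasts as host cells; luminescent beta-galactosidase reporter signal from transgenic T. cruzi replicating inside host cells; inhibitors lower the luminescence signal.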 Type of assay: functional, cell-based.
A short description of assay [13]: cytotoxicity toward NIH3T3 fibroblasts, dose response, counter-screen, cell-based, ATP luminescence, mouse fibroblasts (AID 2010).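 Further: cells exposed to compound for about 90 hours before reading.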 The class given is functional.
The test system of assay [14] is BJ. The assay can be described thus: cytotoxicity toward BJ-TERT-LT-ST fibroblasts, dose response, cell-based, RAS-independent, luminescence (AID 1935).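 Further: BJ fibroblasts immortalized with TERT plus LT and ST oncogenes.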 The class given is functional. To be noted: Homo sapiens.
Assay [15] in a line: cytotoxicity toward DRD oncogenic fibroblasts, dose response, cell-based, non-viral oncogenic, luminescence (AID 1934). The class given is functional. To be noted: Homo sapiens.
Assay [16] addresses Neurotensin receptor type 1 (Homo sapiens, UniProt P30989). Type of assay: functional.
Another assay relates to INS1. Briefly: beta cell apoptosis inhibitors, cytokine rescue, dose response, luminescence, retest (AID 449756).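 Further: cell death triggered by IL-1 beta plus TNF-alpha plus IFN-gamma mixture; protective hits raise ATP signal compared with cytokine alone wells.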 Type of assay: functional, cell-based. To be noted: Rattus norvegicus.
The nature of assay [17]: HeLa cell cytotoxicity, dose response, cytotoxicity control for MgcRacGAP inhibitor project (AID 624300). The class given is functional.
In assay [18] the target is T5, Rac GTPase-activating protein 1 (Homo sapiens, UniProt Q9H0H5).
T5 sequence (Q9H0H5 whole entry): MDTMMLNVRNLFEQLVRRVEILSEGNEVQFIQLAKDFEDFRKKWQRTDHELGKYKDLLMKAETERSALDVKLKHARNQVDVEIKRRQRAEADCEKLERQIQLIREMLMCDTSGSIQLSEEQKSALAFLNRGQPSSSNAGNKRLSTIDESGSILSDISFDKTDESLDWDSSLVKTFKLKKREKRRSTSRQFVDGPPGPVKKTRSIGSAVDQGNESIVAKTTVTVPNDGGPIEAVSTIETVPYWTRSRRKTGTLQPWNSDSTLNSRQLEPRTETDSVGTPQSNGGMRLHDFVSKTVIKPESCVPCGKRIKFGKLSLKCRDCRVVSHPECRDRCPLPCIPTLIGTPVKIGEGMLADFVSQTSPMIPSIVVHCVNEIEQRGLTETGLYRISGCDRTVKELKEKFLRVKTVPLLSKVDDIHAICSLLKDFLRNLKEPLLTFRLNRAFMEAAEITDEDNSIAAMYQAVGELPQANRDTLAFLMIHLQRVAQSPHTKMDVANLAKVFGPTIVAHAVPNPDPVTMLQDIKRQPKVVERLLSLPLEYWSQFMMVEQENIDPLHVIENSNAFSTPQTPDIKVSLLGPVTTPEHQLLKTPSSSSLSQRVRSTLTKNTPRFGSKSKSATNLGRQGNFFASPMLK
Briefly: MgcRacGAP GTPase-activating activity inhibitors, confirmation, biochemical, ADP Hunter fluorescence, primary and confirmatory (AID 624330). Type of assay: functional.

The target in assay [19] is T6, DNA repair protein RAD52 homolog (Homo sapiens, UniProt P43351).
T6 sequence (P43351 whole entry): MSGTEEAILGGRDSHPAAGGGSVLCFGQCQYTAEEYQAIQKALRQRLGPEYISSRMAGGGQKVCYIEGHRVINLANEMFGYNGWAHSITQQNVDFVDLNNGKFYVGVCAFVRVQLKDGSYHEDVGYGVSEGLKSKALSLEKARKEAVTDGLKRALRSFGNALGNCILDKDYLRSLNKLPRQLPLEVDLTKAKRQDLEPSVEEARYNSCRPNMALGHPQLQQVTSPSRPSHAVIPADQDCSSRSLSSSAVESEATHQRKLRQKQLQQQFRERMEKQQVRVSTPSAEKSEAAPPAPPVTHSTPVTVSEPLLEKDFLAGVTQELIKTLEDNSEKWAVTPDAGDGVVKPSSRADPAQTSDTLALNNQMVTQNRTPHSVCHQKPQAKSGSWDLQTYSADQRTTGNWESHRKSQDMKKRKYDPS
Type of assay: functional, biochemical.

Assay [20] can be described thus: non-specific cell cytotoxicity, dose response, cytotoxicity control for PAX8 inhibitor project, plate reader, dry powder samples (AID 743021). Type of assay: functional, cell-based.
A short description of assay [21]: Counterscreen for inhibitors of Trypanosoma brucei methionyl tRNA synthetase (MetRS): Luminescence-based cell-based high throughput dose response assay to identify compounds that are cytotoxic to Jurkat human T lymphocyte cells. Type of assay: functional.
In assay [22] the target is T7, Microphthalmia-associated transcription factor (Homo sapiens, UniProt O75030).
T7 sequence (O75030 whole entry): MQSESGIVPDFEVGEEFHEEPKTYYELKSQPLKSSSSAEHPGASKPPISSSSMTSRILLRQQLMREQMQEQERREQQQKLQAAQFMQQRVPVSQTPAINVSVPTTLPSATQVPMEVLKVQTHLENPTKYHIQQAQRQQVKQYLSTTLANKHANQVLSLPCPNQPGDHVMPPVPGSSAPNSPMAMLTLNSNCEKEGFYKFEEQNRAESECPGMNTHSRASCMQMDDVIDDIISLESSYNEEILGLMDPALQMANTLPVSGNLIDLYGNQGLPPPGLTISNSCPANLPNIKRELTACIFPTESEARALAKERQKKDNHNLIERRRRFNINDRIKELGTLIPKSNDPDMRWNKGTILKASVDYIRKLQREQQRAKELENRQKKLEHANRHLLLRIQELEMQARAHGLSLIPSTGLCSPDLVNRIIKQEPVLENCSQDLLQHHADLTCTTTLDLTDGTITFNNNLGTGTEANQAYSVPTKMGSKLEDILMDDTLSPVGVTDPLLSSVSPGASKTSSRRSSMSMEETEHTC
The assay can be described thus: TRPM1 promoter luciferase signal decrease, dose response, MITF inhibitor project, cell-based, SK-MEL-5, cherry-picked, set 3 (AID 493073).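 Further: SK-MEL-5 melanoma cells with luciferase driven by the MITF target TRPM1 promoter.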 Type of assay: functional.

Assay [23] can be described thus: Shn3 3'UTR reporter inhibitors, dose response, cell-based, Clone20 osteoblasts, firefly luciferase, cherry-picked (AID 624132).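 Further: firefly luciferase luminescence from reporter carrying the Shn3 3'UTR in osteoblasts.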 Type of assay: functional.
Assay [24] is described as follows: HepG2 cell cytotoxicity, dose response, cytotoxicity control for Shn3 inhibitor project, CellTiter-Glo, cherry-picked (AID 624134). The class given is functional, cell-based. (In general: ATP-based viability assays read luminescence as a measure of living cells.)
Assay [25] deals with Photoreceptor-specific nuclear receptor (Homo sapiens, UniProt Q9Y5X4). The class given is functional, cell-based.
Chain of Photoreceptor-specific nuclear receptor (Q9Y5X4 whole entry): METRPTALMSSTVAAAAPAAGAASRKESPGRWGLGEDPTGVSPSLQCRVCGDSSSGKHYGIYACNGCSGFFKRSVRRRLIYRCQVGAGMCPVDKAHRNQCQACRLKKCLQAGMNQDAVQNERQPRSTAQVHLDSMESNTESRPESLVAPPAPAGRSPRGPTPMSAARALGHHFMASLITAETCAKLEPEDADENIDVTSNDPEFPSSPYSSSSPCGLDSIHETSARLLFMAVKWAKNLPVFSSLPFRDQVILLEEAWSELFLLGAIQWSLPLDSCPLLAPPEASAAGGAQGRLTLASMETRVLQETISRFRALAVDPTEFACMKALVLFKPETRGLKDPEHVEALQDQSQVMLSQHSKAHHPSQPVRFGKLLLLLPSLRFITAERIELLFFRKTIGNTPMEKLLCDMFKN
The target in assay [26] is T8, Sentrin-specific protease 1 (Homo sapiens, UniProt Q9P0U3). Briefly: potency of human SENP1 inhibitors, dose response, biochemical, kinetic FRET (AID 651697). Type of assay: functional. To be noted: read-out: IC50_Mean.
T8 sequence (Q9P0U3 whole entry, the tested form may be a part): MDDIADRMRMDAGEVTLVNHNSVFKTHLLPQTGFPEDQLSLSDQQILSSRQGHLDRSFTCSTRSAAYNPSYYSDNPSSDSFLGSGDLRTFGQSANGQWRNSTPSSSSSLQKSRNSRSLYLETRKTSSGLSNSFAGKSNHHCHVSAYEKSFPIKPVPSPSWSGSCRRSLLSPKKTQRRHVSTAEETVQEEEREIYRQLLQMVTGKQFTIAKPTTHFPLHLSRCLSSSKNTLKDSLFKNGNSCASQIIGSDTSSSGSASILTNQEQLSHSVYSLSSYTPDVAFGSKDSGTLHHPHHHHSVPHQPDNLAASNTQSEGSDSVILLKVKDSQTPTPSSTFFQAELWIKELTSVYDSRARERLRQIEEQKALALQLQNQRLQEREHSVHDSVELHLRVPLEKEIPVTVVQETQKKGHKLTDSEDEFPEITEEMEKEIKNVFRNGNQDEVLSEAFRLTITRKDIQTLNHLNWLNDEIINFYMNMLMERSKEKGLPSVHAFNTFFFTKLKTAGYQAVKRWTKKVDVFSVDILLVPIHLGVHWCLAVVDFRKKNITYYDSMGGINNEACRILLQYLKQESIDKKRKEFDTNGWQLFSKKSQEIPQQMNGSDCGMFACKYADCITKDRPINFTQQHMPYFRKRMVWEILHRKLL
Assay [27] addresses T8, Sentrin-specific protease 1. The assay can be described thus: Dose response confirmation of small molecule inhibitors of the catalytic domain of the SUMO protease, SENP1 in a FRET assay. The settings on record: read-out: IC50_Mean. The class given is functional.
Assay [28] addresses T9, Low molecular weight phosphotyrosine protein phosphatase (Homo sapiens, UniProt P24666).
T9 sequence (P24666 whole entry): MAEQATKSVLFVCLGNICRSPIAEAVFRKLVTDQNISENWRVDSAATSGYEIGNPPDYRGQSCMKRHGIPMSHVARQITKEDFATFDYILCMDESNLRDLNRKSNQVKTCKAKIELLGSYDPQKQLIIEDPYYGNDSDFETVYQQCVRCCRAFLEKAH
Type of assay: functional. To be noted: read-out: IC50_Mean.

Assay [29] has as its target T9, Low molecular weight phosphotyrosine protein phosphatase. The class given is functional. The settings on record: read-out: IC50_Mean. This is another data set of the same source.

Chain of Paired box protein Pax-8 (Q06710 whole entry): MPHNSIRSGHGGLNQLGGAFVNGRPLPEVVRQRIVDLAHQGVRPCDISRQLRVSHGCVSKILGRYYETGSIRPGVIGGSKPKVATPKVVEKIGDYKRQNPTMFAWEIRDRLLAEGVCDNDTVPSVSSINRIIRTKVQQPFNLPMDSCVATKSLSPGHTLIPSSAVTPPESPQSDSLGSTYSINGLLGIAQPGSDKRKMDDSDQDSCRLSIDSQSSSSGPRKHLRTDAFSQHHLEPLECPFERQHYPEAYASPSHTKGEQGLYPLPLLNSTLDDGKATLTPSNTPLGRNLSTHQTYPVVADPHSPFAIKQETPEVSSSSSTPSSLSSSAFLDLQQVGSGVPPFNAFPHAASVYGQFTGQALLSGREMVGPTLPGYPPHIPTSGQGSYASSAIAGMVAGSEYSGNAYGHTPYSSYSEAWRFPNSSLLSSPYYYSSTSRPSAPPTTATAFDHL
T1 sequence (P63165 whole entry): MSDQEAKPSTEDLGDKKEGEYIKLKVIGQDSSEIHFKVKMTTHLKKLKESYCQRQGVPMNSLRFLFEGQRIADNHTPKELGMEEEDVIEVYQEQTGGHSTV
Chain of Neurotensin receptor type 1 (P30989 whole entry): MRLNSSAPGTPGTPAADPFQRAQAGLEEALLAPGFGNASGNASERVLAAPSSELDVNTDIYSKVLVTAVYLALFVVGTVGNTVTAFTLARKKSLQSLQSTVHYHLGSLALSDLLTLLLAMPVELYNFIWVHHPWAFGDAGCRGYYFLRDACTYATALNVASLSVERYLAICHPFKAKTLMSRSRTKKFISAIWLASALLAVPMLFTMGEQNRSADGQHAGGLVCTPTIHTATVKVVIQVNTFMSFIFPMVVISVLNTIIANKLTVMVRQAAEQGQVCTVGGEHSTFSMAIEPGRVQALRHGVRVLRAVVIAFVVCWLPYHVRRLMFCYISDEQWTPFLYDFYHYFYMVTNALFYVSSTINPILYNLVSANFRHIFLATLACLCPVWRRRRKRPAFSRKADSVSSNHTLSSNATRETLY
Chain of Nuclear receptor subfamily 5 group A member 2 (O00482 whole entry): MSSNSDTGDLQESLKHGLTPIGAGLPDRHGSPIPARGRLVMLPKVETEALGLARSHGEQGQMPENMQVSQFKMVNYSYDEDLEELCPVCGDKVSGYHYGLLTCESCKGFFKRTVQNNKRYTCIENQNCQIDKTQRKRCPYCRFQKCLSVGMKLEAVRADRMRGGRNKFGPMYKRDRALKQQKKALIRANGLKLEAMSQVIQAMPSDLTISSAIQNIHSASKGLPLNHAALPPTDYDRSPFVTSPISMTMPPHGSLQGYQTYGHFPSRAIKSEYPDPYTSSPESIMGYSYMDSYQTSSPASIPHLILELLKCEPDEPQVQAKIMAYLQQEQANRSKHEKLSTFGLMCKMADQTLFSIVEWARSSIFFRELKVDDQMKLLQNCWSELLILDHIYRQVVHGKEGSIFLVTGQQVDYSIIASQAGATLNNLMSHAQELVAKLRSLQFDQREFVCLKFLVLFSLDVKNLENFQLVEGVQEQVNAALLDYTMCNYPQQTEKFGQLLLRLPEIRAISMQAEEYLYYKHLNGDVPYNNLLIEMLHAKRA

`O=C(CN1C(=O)NC2(CCCCC2)C1=O)NCCc1c[nH]c2ccccc12`: the IC50 in assay [1] was 10.3 µM (inactive); at Steroidogenic factor 1, 5.36 µM (active); in assay [2], 35.9 µM (inactive).
As to `CCCC(C)C(=O)Nc1nc(C)c(-c2csc(Nc3cc(Cl)ccc3C)n2)s1` (centres undefined), the figures for the IC50 in [3] and in [4] were > 66.6 µM (inactive) and 10.2 µM (active), respectively.
For `COc1ccc(NC(=S)N2CCC(c3nc4ccc(Cl)cc4[nH]3)CC2)c(OC)c1`, the EC50 in assay [5] is reported as > 195 µM (not active). In addition, the IC50 is 53.5 µM (inactive) in assay [6] and 26.1 µM (inactive) in assay [7].
On to `Oc1ccc(C[C@H]2CNC(=S)N2CC2CCCN2C[C@H](Cc2ccccc2)N2C[C@H](Cc3ccc(O)cc3)N(CCc3ccccc3)C2=S)cc1` (some centres undefined), for which the IC50 is 17 µM (active) in assay [8] and 30.5 µM (active) in assay [9]. The AC50 on Paired box protein Pax-8 was 11.5 µM (active).
Consider `CC(C)Nc1ccc(Nc2ccnc3cc4ccccc4cc23)cc1`, for which the EC50 was 3.71 µM (inconclusive) with BJ [10]; 9.05 µM (inconclusive) in the assay with BJ [11]; 0.632 µM (active) in [12]; 6.48 µM (active) in assay [13]; 5.35 µM (inconclusive) in the assay on BJ [14]; 4.73 µM (active) in [15]. In assay [16], the EC50 is 12.2 µM (active). Besides, the AC50 with INS1 was 3.15 µM (active); in [19] it was 0.782 µM (active); at Paired box protein Pax-8, 7.04 µM (active); in assay [20], 51.2 µM (active). Besides, in [17], the CC50 was 17.2 µM (active). Also, the IC50 in assay [18] is 20 µM (active).
For the compound `COc1ccc(N=C(S)N2CCC(c3nc4cc(Cl)ccc4[nH]3)CC2)c(OC)c1`, the IC50 in [21] was 83.3 µM (inactive).
As to `Cc1cc(C(=O)COc2cccnc2[N+](=O)[O-])c(C)n1-c1ccccc1`, the AC50 is 1.48 µM (active) in [22], 34.8 µM (active) in [23] and > 70 µM (inactive) in assay [24]. For the same compound, in [25], the IC50 was 0.517 µM (active).
As for `C/C(=N\NC(=O)c1ccccc1F)c1ccc2c(c1)Nc1ccccc1S2`, the IC50 in assay [26] is 11.2 µM (active); in assay [27], 10.5 µM (active); in assay [18], 54.7 µM (active).
On to `Fc1ccccc1-c1nc(NC2CCCC2)c2ccccc2n1`, for which the results for the IC50 in [28] and in assay [29] were 13.1 µM (active) and 7.48 µM (active), respectively.

Broadly, the EC50 is the concentration that produces a half-maximal response. By AC50 is commonly meant the concentration at which the activity in the assay is half-maximal. By CC50 is commonly meant the concentration giving 50% cytotoxicity.
